Source: a melting point compilation (Tetko et al.; mined from patent text by program, amines drawn as free bases though some values may be those of a salt)

Point of comparison: `CC(C#N)(c1ccc(F)cc1)c1ccc(N2NCC(=O)NC2=O)cc1Cl` (stereo not given), melting point 122 °C. Against it:
- CC(C)(C)OC(=O)N1CCCC(C2=C(C#N)C(c3cccc(C#N)c3Br)c3c[nH]nc3N2)C1 (stereo not given) — higher, 238 °C
- COc1c(C)c2c(c(O)c1CC=C(C)CC(C)C(=O)O)C(=O)OC2 (stereo not given) — not separable, 122 to 123 °C
- Cc1cnc(N2CCN(C(=O)OC(C)(C)C)CC2)c2ccoc12 — lower, 108 °C
- CN(CCCCCCO)c1ccc(N=Nc2ccc(S(C)(=O)=O)cc2)cc1 — lower, 114 to 116 °C
- CNC(=O)c1cnn(-c2ccc(Br)cc2)c1C#N — higher, 240 to 241 °C
- CCOC(=O)C1=C(C)NC(N=CN2CCCCC2)=C(C(=O)OCC)C1c1ccccc1Cl (stereo not given) — higher, 145 °C
- CNC(=O)c1ccc(C=CC(=O)O)cc1 — higher, 273 °C
- Cc1cc(C)c(-c2cn(C)c3nc(N4CCCCC4)n(C)c(=O)c23)c(C)c1 — higher, 210 to 212 °C
- CC1(c2nn(-c3ccc([N+](=O)[O-])cc3Cl)c(=O)o2)CC1 — lower, 95 to 97 °C
- O=C(c1ccc(O)cc1)c1c(Cc2ccccc2)oc2ccccc12 — higher, 146 to 149 °C
- Cc1ccc2c(-c3ccccc3)c([N+](=O)[O-])oc2c1 — higher, 142 to 144 °C
- Clc1ccc(CNc2cccnc2)cc1 — lower, 107 to 108 °C
- CC(CCC(=O)NN1CCN(C)CC1)C1CC=C2C3=C(CCC21C)C1(C)CCC(O)C(C)(C)C1CC3 (stereo not given) — higher, 189 to 191 °C
- FC(F)c1nc2ccccc2n1-c1nc(NCc2ccccc2)nc(N2CCOCC2)n1 — higher, 185 to 188 °C
- CCOc1c(N2CCNCC2)c(F)cc2c(=O)c(C(=O)O)cn(C3CC3)c12 — not separable, 119 to 122 °C
- COc1cc2c(N3CCN(Cc4ccccc4)CC3)nc(-c3ccc(Cl)cc3)nc2c(OC)c1OC — higher, 150 °C
- COC(=O)C(Cc1ccc(OCCc2nc(-c3ccccc3)oc2C)cc1)C(=O)N(C)C (stereo not given) — lower, 114 to 115 °C
- CC(Oc1ccc(OCc2ccccc2)cc1)C(=O)N(C)C#N (stereo not given) — lower, 56 to 58 °C
- O=C1c2ccccc2C(=O)N1OCc1c[nH]cn1 — higher, 163 to 165 °C
- O=Cc1c(Cl)c(Br)c(Br)c(Br)c1Br — higher, 268 to 269 °C
- CC(=O)c1c(O)cccc1OCC(F)COc1cccc(O)c1C(C)=O — higher, 162 to 165 °C
- CC(C)n1nc(-c2c(-c3ccccc3)nc(N)nc2N(C)C)ccc1=O — higher, 293 to 296 °C
- CCOC(=O)c1nn(C)c(OC(F)F)c1CO — lower, 90 to 91 °C
- CCN1CCc2ccc(OC)c(Nc3ncc(Cl)c(Nc4ccccc4S(=O)(=O)NC)n3)c2CC1 — higher, 171 to 188 °C
- Cc1cccc(-c2cncc(OC3SCC(O)C(O)C3O)c2)n1 (stereo not given) — higher, 188 °C
- Cc1nc(N)nc(N)c1CCCc1ccc(Cl)cc1Cl — higher, 181 to 185 °C
- Nc1cccc(-c2ccc(CCN3CCN(c4nccn4-c4ccccc4)CC3)cc2)n1 — higher, 140 to 142 °C
- COc1ccc(C2(C#Cc3cccc(NC(C)=O)c3)CCCC(=O)C2)cc1OC1CCCC1 (stereo not given) — lower, 58 to 60 °C
- Cc1cn(CC(Br)C(=O)N(C)C)nc1-c1ccccc1 (stereo not given) — lower, 104 to 107 °C
- CN1C(=O)C(c2ccc(OC(F)F)cc2)(c2cccc(CCCC(F)F)c2)N=C1N (stereo not given) — lower, 54 to 57 °C
- C#CCOc1cc(O)ccc1-c1nc2cnccc2[nH]1 — higher, 242 °C
- COc1cc(OCC(CO)CO)c(C=CC(=O)c2ccc(C(=O)O)cc2)cc1-c1cccs1 — higher, 219 to 220 °C
- COc1ccc2c(c1)C(=NOCCN1CCCC1)c1c-2c(N2CCNCC2)nc2ccccc12 — higher, 126 to 128 °C
- CC1CCC(NS(=O)(=O)NC(=O)OCc2ccccc2)CC1 (stereo not given) — higher, 153 to 155 °C
- COC(=O)c1cnn2c(O)cc(C(F)(F)F)nc12 — higher, 216 to 217 °C
- CC(C)(O)Cn1cnc2cnc3ccccc3c21 — higher, 169 to 170 °C
- COC(=O)NC(C)=NS(=O)(=O)NC(C)C — higher, 193 to 196 °C
- N#Cc1[nH]c2ccc(Br)cc2c1-c1ccccc1 — higher, 227 to 230 °C
- CCCCCCCCc1ccc(OCC(O)Cn2ccc3cc(C(N)=O)ccc32)cc1 (stereo not given) — lower, 118 to 119 °C
